How the values were obtained:
[1] = system: brown marmorated stink bug (BMSB), Halyomorpha halys (Stål); test: Indoor trapping experiment with murgantiol-baited Rescue! Stink Bug Traps in homes; format: in vivo; settings: for behavioral attraction of indoor stink bugs to baited traps: 5 mg lure on rubber septum, traps inside homes, early May, compared to blank control; for stink bugs caught relative to the blank control traps: 5 mg lure, indoor traps, blank control caught average 1 bug/trap
Method: A trapping experiment was carried out inside three homes with decent overwintering stink bug populations in Pittsburgh, Pa., during twelve days in early May to study potential attraction of the BMSB adults to a known Harlequin bug pheromone, murgantiol. During or before the experiment, overwintering stink bugs started waking up from their hibernation stage and walking/crawling inside homes. Three treatment lures and a blank control were tested using Sterling Rescue!® Stink Bug Traps (FIG. 1) in a block design. The three treatments included (i) 5 mg of more polar murgantiol mixture (a mixture of 8 more polar stereoisomers); (ii) 5 mg of less polar murgantiol mixture (a mixture of 8 less polar stereoisomers); and (iii) 5 mg of a racemic mixture of all 16 murgantiol stereoisomers. The test samples of (i), (ii), and (iii) were synthesized and separated based on the methods described by Zahn et al., J. Chem. Ecol. 34:238 (2008). The following scheme outlines the method starting from citronellal to prepare a racemic mixture of stereomers:
Lures were prepared by loading hexane solutions of the test compounds with 1% butylated hydroxytoluene (BHT) added as stabilizer onto grey rubber septa (5 mm sleeve-type; The West Co., Lititz, Pa.) via a rotor evaporator. The blank control dispensers were made in the same fashion as the treatment lures, but without any murgantiol mixtures—that is, rubber septum with hexane only. A set of four Sterling Rescue!® Stink Bug Traps baited with three different isomer mixture test samples of murgantiol dispensers and the blank control were set up in the same room of each selected home on the floor or hung from walls near windows (where stink bug activities were seen earlier). The starting positions of the four test traps within each set (room) were assigned randomly. The distance between traps within the same set was about 8-10 feet, depending on the size of each test room. Traps were checked every day and emptied when ≧5 bugs were captured in the best trap within the set, and their positions were re-randomized for a new replicate to minimize any positional effects.
Trap catch data were converted to proportion (P) of total captured bugs within each replicate to meet the assumptions of normality and homogeneity of variances for ANOVA (analysis of variance). Means were compared by ANOVA followed by the Duncan's multiple range test at α=0.05.

[2] = system: Harlequin bug, Murgantia histrionica (Hahn); settings: both sexes; insect-produced and synthetic murgantiol; laboratory bioassays; cited from earlier work

| SMILES | behavioral attraction of indoor stink bugs to baited traps [1] | stink bugs caught relative to the blank control traps [1] | attractiveness to BMSB adults indoors ([1]; both sexes, indoors during the overwintering and transition periods) | attraction of sexually mature Harlequin bugs [2] |
| --- | --- | --- | --- | --- |
| CC(CCC1OC1(C)C)C1C=CC(C)(O)CC1 (racemic) [racemic mixture of all 16 murgantiol stereoisomers] | significant attraction | five times | – | – |
| CC(CCC1OC1(C)C)C1C=CC(C)(O)CC1 (single isomer, unassigned) [less polar murgantiol mixture] | weakly attractive | – | – | – |
| CC(CCC1OC1(C)C)C1C=CC(C)(O)CC1 (single isomer, unassigned) [more polar murgantiol mixture] | strong attraction | six times | – | – |
| CC(CCC1OC1(C)C)C1C=CC(C)(O)CC1 (stereo not shown) [murgantiol, 4-[3-(3,3-dimethyloxiran-2-yl)-1-methylpropyl]-1-methylcyclohex-2-en-1-ol] | – | – | strongly attractive | attracted sexually mature Harlequin bugs of both sexes |

Source: US8663619B2, “Murgantiol as an indoor stink bug attractant” (Sterling International Inc., priority 2011, dated 2014)
